Experimental data published in patent US7300929B2, “Mediators of hedgehog signaling pathways, compositions and uses related thereto” (Curis, Inc., priority 1999, dated 2007).

Tests used:
[1] = system: Patched pathway / ultraviolet radiation-induced BCC tumors; assay: Adult BCC mouse skin punch assay; format: cell-based; conditions: positive control, 6 days, vs vehicle
Method: Ptc heterozygous transgenic mice were irradiated 3 times weekly for 6 months, during which time many small, and often microscopic, BCC tumors developed. Four-mm diameter skin punch explants, presumably containing BCC structures, were cultured for 6 days in the presence of vehicle, the positive control (jervine), or 5 μM D. At the end of the experiment, the explants were analyzed by X-gal staining to detect the level of Patched pathway activity, by histology to determine the effect of treatment on the morphology of ultraviolet radiation-induced BCCs, and by quantifying the level of gli-1 mRNA expression to characterize the extent of pathway inhibition.

[2] = system: Patched pathway in ptc-null cells; assay: Ptc-null assay (gli-1 mRNA by RT-PCR and real-time PCR); format: cell-based, mouse; conditions: 3 days, 5 μM
Method: […] Total ribonucleic acid (RNA) was isolated from the cells and used for reverse transcriptase-polymerase chain reaction (RT-PCR). […] The gli-1 and actin mRNA samples were then loaded on 1.5% agarose gel and were detected by staining with ethidium bromide. The same samples were analyzed by the quantitative real-time polymerase chain reaction method to quantify the levels of gli-1 mRNA.

CC1=C2C(=O)[C@H]3[C@@H](CC=C4C[C@@H](O)CC[C@@]43C)[C@@H]2CC[C@]12O[C@@H]1C[C@H](C)CN[C@H]1[C@H]2C [jervine]
number and size of BCC structures (X-gal staining) [1]: greatly decreased
gli-1 mRNA levels (quantitative real-time PCR) [2]: downregulated
expression of gli-1 mRNA (RT-PCR, agarose gel) ([2]; vs vehicle): significantly decreased
